Results as given in patent US5684151A, “1-arylsulphonyl, arylcarbonyl and 1-arylphosphonyl-3-phenyl-1,4,5,6-tetrahydropyridazines” (priority 1995, dated 1997).
Where two headings read alike, the source gives them in different places.

What was measured:
[1] = test system: mouse (MC3T3-E1) and human (TE-85) osteoblast-line cells; format: cell-based
How it was run: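 Proliferation was read as ^3H-thymidine (0.4 μCi) uptake during a 4 h pulse, which started 20 h after compound addition. Before dosing, cells sat 24 h in 0.1% FBS. Values are % times control (100%).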

[2] = test system: Human T47D breast carcinoma cells; experiment: Ex vivo progestational test (T47D proliferation); format: cell-based; conditions: SC200, 3H-thymidine incorporation
Procedure: The progestational activity of the compounds was accessed by their ability to stimulate proliferation of human breast carcinoma cells. Proliferation was measured as the ability to stimulate ^3 H-thymidine incorporation into these cells in vitro. Human T47D breast carcinoma cells (American Type Tissue Collection #133-HTB) were maintained in media consisting or RPMI 1640 supplemented with 10% fetal bovine serum, 10 ug/ml insulin, 10 U/ml pennicillin, 100 ug/ml streptomycin, and 2 mM L-glutamine. Monolayer cell cultures were trypsinized and washed in assay media consisting of phenol red-free RPMI 1640 supplemented with 5% charcoal-stripped, fetal bovine serum, and the other ingredients listed above. Cells were then plated in a 96-well plate. After a 48-hour incubation period at 37° C., the conditioned media was removed and replaced with fresh media containing test compounds in DMSO (0.1% DMSO final concentration). The cell cultures were incubated for 18 to 20 hours at 37° C. ^3 H-thymidine was then added to each well and the cell cultures were incubated at 37° C. for an additional 4 hours. Labelling was stopped by addition of un labelled thymidine. The cultures were washed twice, trypsinized and then harvested onto a filter mat. Incorporated ^3 -H-thymidine was measured by liquid scintillation counting. Data was expressed as a percent stimulation above control level which was set at 100%. An SC200 value was calculated as the concentration of test material needed to stimulate ^3 H-thymidine incorporation 200% of control.
Aspects of the application of the procedure used are described in the following: C. Christensen, D. Gunter, D. Saunders and V. Malviya, Gynecol. Oncol., 28, 25 (1987); J. Puzas, R. Drivdahl, G. Howard and D. Baylink, Proc. Soc. Exp. Biol. Med., 166, 113 (1981); and I. Keydar, L. Chen, S. Karby, F. Weiss, J. Delarea, M. Raduy, S. Chaitcik and H. Brenner, Eur. J. Cancer, 15, 659 (1979)

[3] = biological target: T1, progestin receptor from rabbit uterus (Oryctolagus cuniculus, UniProt P06186); experiment: Progestin receptor binding (3H-R5020 displacement); conditions: rabbit uterine cytosol, 4° C., 18 h, read-out: IC50: Binding affinity for the progestin receptor from rabbit uterus
T1 construct: Cytosolic progestin receptor were obtained by mixing rabbit uterine tissue with a Tris buffer; from tissue; host or cells: rabbit uterus cytosol
T1 sequence (P06186 whole entry): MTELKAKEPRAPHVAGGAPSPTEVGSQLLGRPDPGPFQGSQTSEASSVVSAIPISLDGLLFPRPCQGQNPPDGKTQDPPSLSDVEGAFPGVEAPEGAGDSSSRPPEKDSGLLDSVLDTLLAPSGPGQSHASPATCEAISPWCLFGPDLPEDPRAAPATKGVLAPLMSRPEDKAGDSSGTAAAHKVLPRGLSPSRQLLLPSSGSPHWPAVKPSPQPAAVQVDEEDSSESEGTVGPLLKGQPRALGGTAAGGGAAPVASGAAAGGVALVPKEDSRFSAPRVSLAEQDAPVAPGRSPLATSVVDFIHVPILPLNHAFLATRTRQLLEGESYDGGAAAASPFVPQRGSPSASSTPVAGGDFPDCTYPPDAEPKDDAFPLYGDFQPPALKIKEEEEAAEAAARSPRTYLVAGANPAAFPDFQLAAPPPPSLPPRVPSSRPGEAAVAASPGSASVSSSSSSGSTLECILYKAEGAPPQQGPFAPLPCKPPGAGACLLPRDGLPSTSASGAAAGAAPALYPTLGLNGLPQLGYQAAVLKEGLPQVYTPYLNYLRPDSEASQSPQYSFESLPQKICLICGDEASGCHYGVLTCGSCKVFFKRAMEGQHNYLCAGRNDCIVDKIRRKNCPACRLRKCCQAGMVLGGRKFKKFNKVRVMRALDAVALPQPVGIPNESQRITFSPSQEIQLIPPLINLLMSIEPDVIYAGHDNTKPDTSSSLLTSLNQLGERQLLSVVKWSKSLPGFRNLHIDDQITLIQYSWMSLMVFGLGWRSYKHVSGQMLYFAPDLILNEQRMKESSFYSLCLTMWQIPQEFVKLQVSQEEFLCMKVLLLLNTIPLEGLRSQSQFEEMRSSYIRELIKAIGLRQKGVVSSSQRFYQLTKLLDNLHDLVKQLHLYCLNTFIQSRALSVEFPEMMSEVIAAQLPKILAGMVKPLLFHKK
How it was run: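 Displacement of the radioligand 3H-R5020 was measured in cytosol from homogenized rabbit uterus (pH 7.4 Tris/EDTA/DTT/molybdate buffer), with compounds at 5% final DMSO and about 18 h at 4 °C. Charcoal removed free ligand, scintillation counting quantified bound ligand, and IC50 was the concentration displacing half.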

Structure (SMILES) | Osteoblast Cell Proliferation, 3H-thymidine incorporation vs control (100%) ([1]; 10^-6) [%] | Osteoblast Cell Proliferation, 3H-thymidine incorporation vs control (100%) ([1]; 10^-7) [%] | Osteoblast Cell Proliferation, 3H-thymidine incorporation vs control (100%) ([1]; 10^-8) [%] | Osteoblast Cell Proliferation, 3H-thymidine incorporation vs control (100%) ([1]; 10^-9) [%] | Osteoblast Cell Proliferation, 3H-thymidine incorporation vs control (100%) ([1]; 10^-10) [%] | T47D: Concentration to elicit a 200% increase in T47D Human breast cell proliferation [2] | IC50 [3] [nM]
O=S(=O)(c1cccc2ccccc12)N1CCCC(c2ccc(Cl)cc2)=N1 [Compound 15] | 94 | 108 | 114 | 123 | 123 | 10000 | 
CCCCc1ccc(C2=NN(S(=O)(=O)c3cc(Cl)ccc3Cl)CCC2)cc1 [Compound 69] |  |  |  |  |  | 10000 | 10000
CCCCc1ccc(C2=NN(S(=O)(=O)c3ccc(Cl)cc3)CCC2)cc1 [Compound 73] |  |  |  |  |  | 10000 | 10000
CCCCc1ccc(C2=NN(S(=O)(=O)c3ccc(C)cc3)CCC2)cc1 [Compound 74] |  |  |  |  |  | 10000 | 10000
O=S(=O)(c1cc(Cl)ccc1Cl)N1CCCC(c2ccc(Cl)c(C(F)(F)F)c2)=N1 [Compound 79, 3-(4-chloro-3-trifluoromethylphenyl)-1-(2,5-dichlorobenzenesulphonyl)-1,4,5,6-tetrahydropyridazine] |  |  |  |  |  | 10000 | 0.9
O=C(c1cccc(Cl)c1)N1CCCC(c2ccc(Cl)cc2)=N1 [Compound 199] | 105 | 104 | 96 | 83 | 61 |  | 100000
O=C(c1ccc(Cl)c(Cl)c1)N1CCCC(c2ccc(Cl)cc2)=N1 [Compound 200] | 97 | 109 | 107 | 120 | 88 |  | 5000
COc1ccc(C2=NN(C(=O)c3ccc(C(C)(C)C)cc3)CCC2)cc1 [Compound 201] | 89 | 117 | 91 | 69 | 52 |  | 100000
O=C(c1ccc([N+](=O)[O-])cc1)N1CCCC(c2ccc(Cl)cc2)=N1 [Compound 202] | 98 | 108 | 110 | 116 | 128 |  | 279
O=C(c1ccc([N+](=O)[O-])cc1)N1CCCC(c2ccc(F)cc2)=N1 [Compound 203] | 73 | 85 | 102 | 98 | 106 |  | 978
O=C(c1ccc(Cl)cc1)N1CCCC(c2ccc(F)cc2)=N1 [Compound 204] | 79 | 109 | 105 | 101 | 109 |  | 3000
O=C(c1ccc(Cl)c(Cl)c1)N1CCCC(c2ccc(F)cc2)=N1 [Compound 205] | 92 | 115 | 140 | 141 | 138 |  | 263
O=C(c1ccc(Cl)c(Cl)c1)N1CCCC(c2ccc(Cl)c(Cl)c2)=N1 [Compound 216] | 105 | 108 | 105 | 96 | 100 |  | 103
O=C(c1ccc([N+](=O)[O-])cc1)N1CCCC(c2ccc(Cl)c(Cl)c2)=N1 [Compound 217] | 86 | 87 | 91 | 72 | 52 |  | 102
O=C(c1cccc(C(F)(F)F)c1)N1CCCC(c2ccc(Cl)c(Cl)c2)=N1 [Compound 218] | 112 | 115 | 119 | 107 | 109 |  | 1980
COP(=O)(c1ccccc1)N1CCCC(c2ccccc2)=N1 (centres unmarked) [Compound 252] | 75 | 86 | 79 | 97 | 86 |  | 10000
CCOP(=O)(c1ccccc1)N1CCCC(c2ccccc2)=N1 (centres unmarked) [Compound 253] | 151 | 124 | 143 | 142 | 157 |  | 688
CCOP(=O)(c1ccccc1)N1CCCC(c2ccc(Cl)c(Cl)c2)=N1 (centres unmarked) [Compound 255] | 107 | 125 | 139 | 132 | 145 |  | 204
CC(C)OP(=O)(c1ccccc1)N1CCCC(c2ccc(Cl)c(Cl)c2)=N1 (centres unmarked) [Compound 256] | 97 | 100 | 104 | 128 | 116 |  | 95.5
O=P(OC1CCCC1)(c1ccccc1)N1CCCC(c2ccc(Cl)c(Cl)c2)=N1 (centres unmarked) [Compound 257] | 86 | 114 | 122 | 112 | 114 |  | 300
COP(=O)(c1ccccc1)N1CCCC(c2ccc(Cl)c(C(F)(F)F)c2)=N1 (centres unmarked) [Compound 261] | 98 | 105 | 95 | 100 | 111 |  | 131
CCOP(=O)(c1ccccc1)N1CCCC(c2ccc(Cl)c(C(F)(F)F)c2)=N1 (centres unmarked) [Compound 262] | 99 | 104 | 102 | 110 | 141 |  | 958
